# Experimental data taken from ChEMBL document CHEMBL1201862, “PubChem BioAssay data set” (2004).
# Active and inactive are the calls of the source.
# How the values were obtained:
# Protein Rev = Protein Rev (Human immunodeficiency virus type 1 group M subtype B (isolate WMJ22)(HIV-1), UniProt P05866); test: HIV-1 Rev-RRE RNA binding disruptors, dose response, biochemical, protein-RNA interaction (AID 842); parameters: species or system Human immunodeficiency virus 1
# [1] = biological target: Dual specificity protein phosphatase 3 (Homo sapiens, UniProt P51452); test: VHR1 inhibitor Ki determination, SAR follow-up, biochemical, colorimetric (AID 2004)
# Chain of Dual specificity protein phosphatase 3 (P51452 whole entry): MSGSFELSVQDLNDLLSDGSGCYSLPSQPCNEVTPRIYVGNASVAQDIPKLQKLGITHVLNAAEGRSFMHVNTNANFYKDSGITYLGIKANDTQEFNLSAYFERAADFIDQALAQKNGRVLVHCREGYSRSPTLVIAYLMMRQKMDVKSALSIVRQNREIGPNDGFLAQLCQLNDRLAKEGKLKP
# Large T antigen = Large T antigen (Simian virus 40, UniProt P03070); test: A confirmatory biochemical assay using the ADP-Hunter methodology, purified TAg, and ATP to quantify activity of synthesized compounds that inhibit the ATPase activity of Tag (3). [Related pubchem assays (depositor defined):AID1903, AID1909, AID2102, AID2501, AID2615, AID2775, AID435001, AID449729]; parameters: species or system Betapolyomavirus macacae
# Chain of Large T antigen (P03070 whole entry): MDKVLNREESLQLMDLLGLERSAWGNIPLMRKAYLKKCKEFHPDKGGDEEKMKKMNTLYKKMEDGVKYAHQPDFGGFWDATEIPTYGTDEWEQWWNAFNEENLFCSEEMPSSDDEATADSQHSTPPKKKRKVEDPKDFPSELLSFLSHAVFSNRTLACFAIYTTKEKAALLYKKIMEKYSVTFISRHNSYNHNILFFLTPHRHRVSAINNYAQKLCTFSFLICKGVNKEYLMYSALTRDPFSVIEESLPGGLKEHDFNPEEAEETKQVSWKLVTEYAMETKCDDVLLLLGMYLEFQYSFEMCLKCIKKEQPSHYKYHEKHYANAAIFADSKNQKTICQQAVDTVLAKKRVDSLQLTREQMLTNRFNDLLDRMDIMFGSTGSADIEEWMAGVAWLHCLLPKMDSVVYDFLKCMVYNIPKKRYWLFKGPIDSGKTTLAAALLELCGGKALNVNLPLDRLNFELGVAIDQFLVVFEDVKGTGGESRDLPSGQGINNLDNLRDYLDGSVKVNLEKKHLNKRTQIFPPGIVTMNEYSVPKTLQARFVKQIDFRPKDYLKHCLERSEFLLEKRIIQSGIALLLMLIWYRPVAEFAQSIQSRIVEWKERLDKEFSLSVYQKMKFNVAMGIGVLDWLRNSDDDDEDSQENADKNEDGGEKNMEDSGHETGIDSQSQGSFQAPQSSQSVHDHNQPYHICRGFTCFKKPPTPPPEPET
# [2] = biological target: T1, Delta-type opioid receptor (Homo sapiens, UniProt P41143); test: DOR agonists, SAR follow-up, image-based (AID 2370); assay type: functional
# T1 sequence (P41143 whole entry): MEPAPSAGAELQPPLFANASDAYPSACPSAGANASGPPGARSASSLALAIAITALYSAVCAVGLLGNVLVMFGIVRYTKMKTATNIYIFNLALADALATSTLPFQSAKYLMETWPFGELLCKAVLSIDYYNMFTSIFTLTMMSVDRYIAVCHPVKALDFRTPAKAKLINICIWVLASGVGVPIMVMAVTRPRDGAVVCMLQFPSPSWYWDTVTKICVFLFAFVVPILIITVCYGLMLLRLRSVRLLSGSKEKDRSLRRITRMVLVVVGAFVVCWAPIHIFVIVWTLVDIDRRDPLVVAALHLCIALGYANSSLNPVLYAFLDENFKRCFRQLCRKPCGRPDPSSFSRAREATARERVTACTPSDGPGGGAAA
# [3] = biological target: T2, Kappa-type opioid receptor (Homo sapiens, UniProt P41145); test: KOR antagonists by imaging, SAR follow-up, image-based (AID 2348); assay type: functional
# T2 sequence (P41145 whole entry): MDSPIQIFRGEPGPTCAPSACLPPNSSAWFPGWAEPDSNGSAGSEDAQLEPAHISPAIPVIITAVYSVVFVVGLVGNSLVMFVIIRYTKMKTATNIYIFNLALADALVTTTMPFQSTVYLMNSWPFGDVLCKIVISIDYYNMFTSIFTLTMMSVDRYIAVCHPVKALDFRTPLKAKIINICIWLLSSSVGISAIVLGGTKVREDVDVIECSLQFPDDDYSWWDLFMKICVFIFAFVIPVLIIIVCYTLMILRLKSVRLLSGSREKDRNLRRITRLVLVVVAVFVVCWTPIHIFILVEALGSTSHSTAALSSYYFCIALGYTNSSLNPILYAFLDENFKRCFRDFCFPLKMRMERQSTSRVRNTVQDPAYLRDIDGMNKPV
# [4] = biological target: T2, Kappa-type opioid receptor; assay type: functional
# Mu-type opioid receptor [5] = biological target: T3, Mu-type opioid receptor (Homo sapiens, UniProt P35372); test: MOR agonists by imaging, SAR follow-up, image-based (AID 2352); assay type: functional
# T3 sequence (P35372 whole entry): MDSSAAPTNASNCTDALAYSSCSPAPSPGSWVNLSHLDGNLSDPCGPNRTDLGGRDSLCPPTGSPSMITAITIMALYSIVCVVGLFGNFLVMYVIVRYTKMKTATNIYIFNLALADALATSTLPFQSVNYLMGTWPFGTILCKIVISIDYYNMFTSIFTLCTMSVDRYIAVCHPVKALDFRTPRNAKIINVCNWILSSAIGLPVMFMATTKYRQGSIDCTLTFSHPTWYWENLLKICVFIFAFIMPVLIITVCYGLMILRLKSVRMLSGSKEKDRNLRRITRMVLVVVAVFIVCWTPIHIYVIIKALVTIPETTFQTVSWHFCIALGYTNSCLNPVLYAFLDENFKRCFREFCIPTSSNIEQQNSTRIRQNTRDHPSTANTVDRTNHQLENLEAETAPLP
# [6] = biological target: T2, Kappa-type opioid receptor; assay type: functional; remark: listed apart in the source
# Mu-type opioid receptor [7] = biological target: T3, Mu-type opioid receptor; test: MOR antagonists, SAR follow-up, image-based (AID 2420); assay type: functional;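 note: compounds added before stimulation of receptor with agonist DAMGO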
# [8] = biological target: T1, Delta-type opioid receptor; test: DOR antagonists, SAR follow-up, image-based (AID 2357); assay type: functional
# Chain of Protein Rev (P05866 whole entry): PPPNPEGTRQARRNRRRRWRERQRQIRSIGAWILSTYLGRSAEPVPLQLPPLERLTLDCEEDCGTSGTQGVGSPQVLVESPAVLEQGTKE
structure (smiles),measurement,setting,value
CNCCCOc1ccc(C(C)(C)c2ccccc2)cc1,IC50,Protein Rev,> 79.4 µM (not active)
CN1C(=O)C(=Cc2ccc(N3CCCC3)c([N+](=O)[O-])c2)C(=O)N(C)C1=O,Ki,[1],24.5 µM (inactive)
Oc1ccc(Oc2ccc(O)cc2)cc1,IC50,Large T antigen,37.7 µM (active)
CC(C)(C)c1ccc(CSc2nnc(-c3ccccn3)n2Cc2ccco2)cc1,EC50,[2],> 32 µM (inactive)
same,IC50,[3],> 32 µM (inactive)
same,EC50,[4],2.18 µM
same,EC50,Mu-type opioid receptor [5],> 32 µM (inactive)
same,EC50,[6],1.02 µM
same,IC50,Mu-type opioid receptor [7],> 32 µM (inactive)
same,IC50,[8],> 32 µM (inactive)
